According to PubChem BioAssay (NCI):
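Five concentrations, 48 hours, 96-well plates. At the GI50, growth is halved. TGI: total growth inhibition.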 Where a SMILES comes first, the peptide text is derived from it. Bridges are numbered along the chain shown (N, C = ends). Roman numbers before positions name the chains, in order. [ ]: non-standard residue; d: D form. The star is where a group is joined. Heptadecanoyl = CCCCCCCCCCCCCCCCC(=O)*; Phg = N[CH](C(=O)O)c1ccccc1

How the values were obtained:
Assay in all cases: NCI anticancer screen, dose series, 48 h
HCC-2998 colon = tested on: HCC-2998 colon
HCT-116 colon = tested on: HCT-116 colon
K-562 leukemia = tested on: K-562 leukemia
KM12 colon = tested on: KM12 colon
MDA-MB-435 = tested on: MDA-MB-435
MOLT-4 leukemia = tested on: MOLT-4 leukemia
NCI-H23 lung = tested on: NCI-H23 lung
NCI-H460 lung = tested on: NCI-H460 lung
SF-295 CNS = tested on: SF-295 CNS
SK-OV-3 ovarian = tested on: SK-OV-3 ovarian

| SMILES | TGI (HCC-2998 colon) [µM] | TGI (HCT-116 colon) [µM] | TGI (K-562 leukemia) [µM] | TGI (KM12 colon) [µM] | TGI (MDA-MB-435) [µM] | TGI (MOLT-4 leukemia) [µM] | TGI (NCI-H23 lung) [µM] | TGI (NCI-H460 lung) [µM] | TGI (SF-295 CNS) [µM] | TGI (SK-OV-3 ovarian) [µM] | GI50 (HCC-2998 colon) [µM] | GI50 (HCT-116 colon) [µM] | GI50 (K-562 leukemia) [µM] | GI50 (MDA-MB-435) [µM] | GI50 (MOLT-4 leukemia) [µM] | GI50 (NCI-H23 lung) [µM] | GI50 (NCI-H460 lung) [µM] | GI50 (SF-295 CNS) [µM] | GI50 (SK-OV-3 ovarian) [µM] |
| --- | --- | --- | --- | --- | --- | --- | --- | --- | --- | --- | --- | --- | --- | --- | --- | --- | --- | --- | --- |
| CC(=O)OCC1OC(OC2CC3C(C)(C)C(=O)CC[C@]3(C)C3CC[C@]45C[C@]4(CCC5[C@@H](C)CC(O)C(O)C(C)(C)O)[C@]23C)C(O)C(O)C1O (stereo partly specified) | 21.7 | 20 | 21.7 | 19.1 | 21.2 | 15.6 | 32.7 | 27.1 | 27.1 | 28.9 | – | – | – | – | – | – | – | – | – |
| CN(C)C1COC2Cc3ccccc3C1O2 (stereo unspecified) | > 100 | > 100 | > 100 | > 100 | > 100 | > 100 | > 100 | > 100 | > 100 | > 100 | – | – | – | – | – | – | – | – | – |
| O=C(NO)c1ccc(OCc2ccccc2)cc1 | > 100 | 27.4 | > 100 | > 100 | > 100 | > 100 | 28.1 | > 100 | > 100 | > 100 | – | – | – | – | – | – | – | – | – |
| CC[C@@H]1C[C@@H](O)[C@@H]2[C@H](O)[C@H](O)CN2C1 | > 100 | > 100 | > 100 | > 100 | > 100 | > 100 | > 100 | > 100 | > 100 | > 100 | – | – | – | – | – | – | – | – | – |
| CN(C)CC1CN(C(=O)Nc2ccccc2)C(=N)O1 (stereo unspecified) | > 100 | > 100 | > 100 | > 100 | > 100 | > 100 | > 100 | > 100 | > 100 | > 100 | – | – | – | – | – | – | – | – | – |
| Cc1c(C)c(C)c(CSC(=N)N)c(C)c1C | 27.8 | 30 | 30.2 | 39.3 | 31.3 | 33 | 33.4 | 26.8 | 21.7 | 34.2 | – | – | – | – | – | – | – | – | – |
| COC(=O)c1cc(/C=C2\Cc3cc4c(cc3C2=O)CCC4)cc2c1CCC2 | > 100 | > 100 | > 100 | > 100 | > 100 | > 100 | > 100 | > 100 | > 100 | > 100 | – | – | – | – | – | – | – | – | – |
| CC1(C)OC([C@H](O)CO)C([C@H]2NCCS2)O1 (stereo partly specified) | > 100 | > 100 | > 100 | > 100 | > 100 | > 100 | > 100 | > 100 | > 100 | > 100 | – | – | – | – | – | – | – | – | – |
| CC1CC(=O)NC2CC1C2(C)C (stereo unspecified) | > 100 | – | > 100 | > 100 | > 100 | > 100 | > 100 | > 100 | > 100 | – | – | – | – | – | – | – | – | – | – |
| CCCCCCCCCCCCCCCCC(=O)N1CCCC1C(=O)NCC(=O)NC(C(=O)N1CCCC1C(=O)NC(CO)C(=O)NC(Cc1ccc(O)cc1)C(=O)NC(CCCCNC(=O)C1CCCN1C(=O)C(CCCCN)NC(=O)C(CCCCN)NC(=O)C(CCCCN)NC(=O)C(CCCNC(=N)N)NC(=O)C(CCCCN)NC(=O)C(N)C(C)C)C(=O)NC(CC(C)C)C(=O)NC(CCCNC(=N)N)C(=O)N1CCCC1C(=O)NCC(N)=O)c1ccccc1 (stereo unspecified) (I: Heptadecanoyl-PG[Phg]PSYKLRPG-NH2 / II: H-VKRKKKP; amide I:7-II:C; configuration not given here) | 29.9 | 43.8 | 86.8 | – | 83.9 | 44.8 | > 100 | > 100 | 80.1 | 51.4 | 4.36 | 13 | 10.2 | 18.9 | 16.3 | 31.5 | 23.2 | 25 | 23.1 |
| O=C1/C(=C/c2ccc(O)cc2)CCc2ccccc21 | 43.6 | 31.6 | 81.3 | 32.2 | 52.8 | 12.4 | 55.2 | 72.4 | > 63.7 | > 89.4 | – | – | – | – | – | – | – | – | – |
| CC1(C)CC[C@]2(C(=O)O)CC[C@]3(C)C(=CC[C@@H]4[C@@]5(C)CC[C@@H]6OC(C)(C)OC[C@@]6(C)[C@@H]5CC[C@]43C)[C@H]2C1 | 27.5 | 20.9 | 40.6 | – | 25.6 | 34.3 | – | 20 | 27.6 | 91.8 | – | – | – | – | – | – | – | – | – |
| O=C(O)CCCC#CCCCC(=O)O | > 100 | > 100 | > 100 | > 100 | > 100 | – | > 100 | > 100 | > 100 | > 100 | – | – | – | – | – | – | – | – | – |
| COc1cc(C2c3cc4c(cc3OC(O)C2C)OCO4)cc(OC)c1O (stereo unspecified) | 49.5 | 38.3 | > 100 | > 100 | 5.22 | > 100 | > 100 | > 70.5 | 33.9 | 55.7 | – | – | – | – | – | – | – | – | – |
| CC(C)C(/C=C/c1ccc(Cl)cc1)=N\NC(=S)NN | > 100 | 11.4 | > 100 | > 100 | 85.2 | > 100 | > 100 | 41.8 | > 100 | > 100 | – | – | – | – | – | – | – | – | – |
| O=C1c2cccnc2-c2nccc3ccnc1c23 | 3.41 | 0.0784 | 0.666 | 2.66 | 0.38 | 0.756 | 2.11 | 12.8 | 2.78 | 2.9 | – | – | – | – | – | – | – | – | – |
| O=C1CCC2(c3ccc(F)cc3)Nc3ncncc3N12 (stereo unspecified) | > 10 | – | > 10 | > 10 | > 10 | > 10 | > 10 | > 10 | > 10 | – | – | – | – | – | – | – | – | – | – |
| CC1=C/C(=C(/c2ccc(O)c(C)c2)c2ccccc2C(=O)O)C=CC1=O | 34.5 | 32.8 | 44.7 | 36.6 | 33.3 | 43.1 | 36.6 | > 100 | 44.2 | 35.1 | – | – | – | – | – | – | – | – | – |
| CC(=O)O[C@H]1C(=O)[C@@]2(C)[C@H]([C@H](OC(=O)c3ccncc3)[C@]3(O)C[C@H](OC(=O)[C@H](O)[C@@H](NC(=O)c4ccccc4)c4ccccc4)C(C)=C1C3(C)C)[C@]1(OC(C)=O)CO[C@@H]1C[C@@H]2O | 11 | > 11.1 | 5.36 | > 25 | 1.96 | > 25 | > 25 | > 25 | > 25 | > 25 | – | – | – | – | – | – | – | – | – |
| CCCCC/C(=N\c1nc[nH]c1C(N)=O)OCC | > 100 | > 100 | > 100 | > 100 | > 100 | > 100 | > 100 | > 100 | > 100 | > 100 | – | – | – | – | – | – | – | – | – |
